Source: patent US20110171221A1, “COMPOSITIONS AND METHODS FOR THE TREATMENT OF A NEOPLASIA” (University of Florida Research Foundation, priority 2008, published 2011)
“Also recorded” adds a separate entry of the source.

Key:
[1] = test system: Sox2, Oct 3/4 and Nanog expression in metastatic prostate stem cell lines; test: Western blot of stem cell markers after Docetaxel; assay type: cell-based, human; details: Docetaxel 1 nM, 2 nM, 5 nM, 10 nM
Procedure: (§1) Prostate cancer stem cells from metastatic prostate cancer cell lines were examined for their sensitivity to conventional cancer treatments (e.g., radiation and chemotherapy). […] Metastatic prostate stem cell lines were also treated with Docetaxel, a frontline treatment for drug-resistant cancer cells.
For the experiments described above, Western-blot analysis was performed by standard methods on isolated cancer stem cells and non-cancer stem cells. Whole cell lysates were prepared in lysis buffer with a commercially available protease inhibitor cocktail (Pierce) at 4° C., followed by centrifugation at 13,000×g for 10 min. Extracts were separated by SDS/PAGE and transferred to nitrocellulose membranes. The membranes were blocked with 5% nonfat dry milk in 20 mM Tris-HCl (pH 7.5), 500 mM sodium chloride, and 0.05% Tween 20 for 2 h and then incubated with commercially available primary antibodies against OCT3/4, c-Myc, β-actin (Cell Signaling), SOX2, Klf4 (Santa Cruz), Nanog (BioLegend), or E-cadherin (BD Bioscience) in the same buffer with 1% BSA (fraction V). After washing, the blots were incubated with an HRP-conjugated secondary antibody and visualized with a commercially available chemiluminescence detection system (Amersham). β-actin-specific Abs were used to ensure equal protein loading.

[2] = test system: prostate cancer stem cells (CSC) and non-stem prostate cancer cells (Non-CSC); test: cell viability after Docetaxel; assay type: cell-based, human; details: 5 nM Docetaxel, Day 0, 1, 2 and 3 (up to 72 hours)
Procedure: FIG. 12B is a graph depicting the cell viability of prostate cancer stem cells (CSC) and non-stem prostate cancer cells (Non-CSC) observed for up to 72 hours after treatment with Docetaxel. Cell viability was determined by quantifying the surviving prostate cancer stem cells (CSC) and non-stem prostate cancer cells (Non-CSC) in the samples exposed to 5 nM Docetaxel at Day 0, 1, 2 and 3.
as §1

## CC(=O)O[C@@]12CO[C@@H]1C[C@H](O)[C@@]1(C)C(=O)[C@H](O)C3=C(C)[C@@H](OC(=O)[C@H](O)[C@@H](NC(=O)OC(C)(C)C)c4ccccc4)C[C@@](O)([C@@H](OC(=O)c4ccccc4)[C@H]21)C3(C)C [Docetaxel]
[1]
  detection of Sox2, Oct 3/4 and Nanog expression: increased detection of Sox2, Oct 3/4 and Nanog expression with increasing dose
[2]
  cell viability of prostate cancer stem cells vs non-stem prostate cancer cells: more cell viability compared to non-stem prostate cancer cells; also recorded: resistant
